Data: US12195427B2, “MASP-2 inhibitors and methods of use” (priority 2018, dated 2025)
pIC50, pKi: −log10 of the molar value. Counter-ions that a name gives are not always drawn.

How the values were obtained:
[1] = biological target: human α-thrombin (Homo sapiens (Human), UniProt P00734); assay: Enzymatic Assay for Thrombin (Boc-VPR-AMC); assay type: biochemical
[2] = biological target: MASP-2 (CCP1-CCP2-SP) (Homo sapiens (Human), UniProt O00187); assay: Enzymatic Assay for MASP-2 (fluorogenic substrate); assay type: biochemical
[3] = biological target: MASP-2 CCP2-SP (Homo sapiens (Human), UniProt O00187); assay: MASP-2 co-crystallization, X-ray crystallography and structure analysis (H-bonds, van der Waals contacts); parameters: van der Waals contact distance, MASP-2 HIS 483 atom CD2 / van der Waals contact distance, MASP-2 HIS 483 atom NE2 / van der Waals contact distance, SER 654 C to compound atom / van der Waals contact distance, SER 654 O to compound atom / van der Waals contact distance, TRP 655 C to compound atom / van der Waals contact distance, MASP-2 GLY 528 atom CA / van der Waals contact distance TRP 655 atom CZ3 / van der Waals contact distance TRP 655 atom N / van der Waals contact distance TRP 655 atom CE3 / van der Waals contact distance GLY 656 atom C / van der Waals contact distance GLY 656 atom CA / van der Waals contact distance GLY 656 atom O / van der Waals contact distance, MASP-2 TYR 607 atom CD1 / van der Waals contact distance, MASP-2 PRO 606 atom O / d(C3,CA1) / d(CA1,N1)2 / d(H4,O1) / d(H4,O2) / d(O1,O2) / d(CA1,O2) / d(CA6,O1) / d(CA6,O2) / d(CA1,C5) / d(O2,H3) / d(N2,C2) / d(CA5,N2) / d(N2,C4) / d(N2,C6) / d(N2,CA3) / d(N2,O3) / d(O4,H2): unit not given beside the values; conditions: for van der Waals contact distance, MASP-2 amino acid atom to compound atom: ARG 630;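 as to Ligand-pharmacophore element distance, pharmacophore element C2: distance from averaged pharmacophore element to bound ligand; missing value means element absent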;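 as to Ligand-pharmacophore element distance, pharmacophore element C3: distance from averaged pharmacophore element to bound ligand; missing value means element absent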;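 as to Ligand-pharmacophore element distance, pharmacophore element C4: distance from averaged pharmacophore element to bound ligand; missing value means element absent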;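 as to Ligand-pharmacophore element distance, pharmacophore element C5: distance from averaged pharmacophore element to bound ligand; missing value means element absent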
In short: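 Inhibitor complexes were obtained by soaking crystals of E. coli-expressed human MASP-2 CCP2-SP constructs, then flash-cooling in liquid nitrogen. Structures solved by molecular replacement (1Q3X search model) from synchrotron diffraction; where several poses existed, only one was analyzed, and nonbonded contacts listed can include H-bonds.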

[4] = tested on: Lectin Pathway; assay: Lectin Pathway Activation Assay in Human Serum (mannan-coated ELISA, C3c detection); assay type: biochemical; conditions: 1% human serum
Method: Microtiter ELISA plate was coated with mannan from Saccharomyces cerevisiae (Sigma-Aldrich, M7504) for overnight at 4° C. in coating buffer [15 mM Na2CO3, 35 mM NaHCO3].

[5] = Table A5-1 pharmacophore: distance between elements, S2/S1 region
[6] = Table A5-2 pharmacophore distance, S3/S4 region
[7] = Table A7-1, between pharmacophore elements of the bound compound
[8] = Table A7-2, between pharmacophore elements of the bound compound
[9] = Table A8-6, nearest protein atom in cell to the left

MASP-2 CCP2-SP, sequence (O00187 445-686): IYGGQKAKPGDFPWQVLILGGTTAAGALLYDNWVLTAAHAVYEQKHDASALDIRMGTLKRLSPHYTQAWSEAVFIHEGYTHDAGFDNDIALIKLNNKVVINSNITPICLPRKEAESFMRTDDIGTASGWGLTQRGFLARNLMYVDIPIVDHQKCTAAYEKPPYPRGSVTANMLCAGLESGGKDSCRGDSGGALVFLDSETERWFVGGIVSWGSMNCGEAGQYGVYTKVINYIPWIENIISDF
MASP-2 CCP2-SP, sequence (O00187 364-432 partner): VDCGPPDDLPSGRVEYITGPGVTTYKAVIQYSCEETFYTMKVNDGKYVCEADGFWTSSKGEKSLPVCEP
MASP-2 (CCP1-CCP2-SP), sequence (O00187 445-686): as the sequence (O00187 445-686) above

## C[C@H](NC(=O)[C@H](N)CCc1cc(Cl)cc(Cl)c1)C(=O)NCc1ccc(C(=N)N)cc1 [compound 1118]
[1]
  pKi: > 6.30
[2]
  pKi: > 6.30
[3]; Table A1 (H-Bonds), GLY 656 N
  H-bond distance to MASP-2 GLY 656 atom N: 3.07
[3]; Table A1 (H-Bonds), GLY 656 O
  H-bond distance to MASP-2 GLY 656 atom O: 2.77
[3]; Table A1 (H-Bonds), SER 628 OG
  H-bond distance to MASP-2 SER 628 atom OG: 3.18
[3]; Table A1 (H-Bonds), SER 654 O
  H-bond distance to MASP-2 SER 654 atom O: 2.88
[3]; Table A1 (H-Bonds), SER 657 O
  H-bond distance to MASP-2 SER 657 atom O: 2.93
[3]; Table A2-1
  van der Waals contact distance, MASP-2 HIS 483 atom CD2: 3.64
[3]; Table A2-3
  van der Waals contact distance, MASP-2 PHE 529 atom CD1: 3.52
[3]; Table A2-4
  van der Waals contact distance, MASP-2 TYR 607 atom CA: 3.79
[3]; Table A2-9, AA atoms CG, CZ
  van der Waals contact distance, MASP-2 amino acid atom to compound atom: 3.85
[3]; Table A2-9 second part, AA atoms N, NE, NH1
  van der Waals contact distance, MASP-2 amino acid atom to compound atom: 3.67
[3]; Table A2-11
  van der Waals contact distance, VAL 653 CG1 to compound atom: 3.86
[3]; Table A2-13, MASP-2 GLY 656 C
  van der Waals contact distance GLY 656 atom C: 3.63
[3]; Table A2-13, MASP-2 TRP 655 CZ3
  van der Waals contact distance TRP 655 atom CZ3: 3.69
[3]; Table A2-13, MASP-2 TRP 655 N
  van der Waals contact distance TRP 655 atom N: 3.76
[3]; Table A2-14, MASP-2 SER 657 C, columns c12-c13 (inferred)
  van der Waals contact distance SER 657 atom C: 3.8
[3]; Table A4-1, element C2
  Ligand-pharmacophore element distance, pharmacophore element C2: 0
[3]; Table A4-1, element C3
  Ligand-pharmacophore element distance, pharmacophore element C3: 0
[3]; Table A4-1, element C4
  Ligand-pharmacophore element distance, pharmacophore element C4: 2.54
[3]; Table A4-1, element C5
  Ligand-pharmacophore element distance, pharmacophore element C5: 0
[3]; Table A4-1, element C6
  Ligand-pharmacophore element distance, pharmacophore element C6: 1.17
[3]; Table A4-1, element C7
  Ligand-pharmacophore element distance, pharmacophore element C7: 0
[3]; Table A4-1, element CA1
  Ligand-pharmacophore element distance, pharmacophore element CA1: 0.43
[3]; Table A4-1, element CA2
  Ligand-pharmacophore element distance, pharmacophore element CA2: 0.69
[3]; Table A4-1, element CA3
  Ligand-pharmacophore element distance, pharmacophore element CA3: 0
[3]; Table A4-1, element CA4
  Ligand-pharmacophore element distance, pharmacophore element CA4: 0
[3]; Table A4-1, element CA5
  Ligand-pharmacophore element distance, pharmacophore element CA5: 0
[3]; Table A4-1, element CA6
  Ligand-pharmacophore element distance, pharmacophore element CA6: 0
[3]; [5]
  d(CA1,N1): 3.55
  d(CA1,O1): 4.35
  d(CA1,O2): 4.33
  d(H4,O1): 4.85
  d(H4,O2): 4.52
  d(O1,O2): 3.25
[3]; [6]
  d(N2,C4): 7.40
  d(N2,C4)4: 7.40
  d(N2,C6): 8.27
  d(N2,CA2): 5.84
  d(O2,H3): 5.85
  d(O2,N2): 2.67
[3]; Table A6-1 pharmacophore angle
  a(CA1, O1, O2): 111.55
  a(O1, O2, H4): 139.63
[3]; Table A6-1 pharmacophore angle, all compounds with protonatable center N1 except Methyl-amino-pyridine
  A(N1, CA1, O1) a): 162.73
[3]; Table A6-2 pharmacophore angle
  a(O1, O2, H3): 152.79
  a(O1, O2, N2): 137.47
  a(O2, N2, C4): 162.84
  a(O2, N2, C4) 2: 125.21
  a(O2, N2, C6): 88.59
  a(O2, N2, CA2): 154.60
[3]; [7]
  Pharmacophore torsion angle a(H4, O1, O2, H3): 38.74
  Pharmacophore torsion angle a(H4, O1, O2, N2): 128.20
  Pharmacophore torsion angle a(N1, CA1, O2, H4): −132.91
  Pharmacophore torsion angle a(O1, H4, O2, CA1): −65.17
[3]; [8]
  Pharmacophore torsion angle a(O1, O2, N2, C6): 150.07
  Pharmacophore torsion angle a(O1, O2, N2, CA2): 145.00
[3]; Table A8-6, 6th residue column, nearest protein atom in cell to the left
  Pharmacophore protein distance to MET_658 (first MET_658 column): 1.45
[3]; Table A8-6, 9th residue column, nearest protein atom in cell to the left
  Pharmacophore protein distance to MET_658 (second MET_658 column): 3.28
[3]; [9]
  Pharmacophore protein distance to GLY_528: 3.82
  Pharmacophore protein distance to PHE_529: 3.01
  Pharmacophore protein distance to PRO_608: 4.83
  Pharmacophore protein distance to SER_611: 3.12
[3]; Table A8-6, pharmacophore elements C6, CA3, O3, H1, nearest protein atom in cell to the left
  Pharmacophore protein distance to TRP_655: 3.71

## COc1cc(C[C@@H]2CN[C@@H](C(=O)N[C@@H](C)C(=O)NCc3cc(Cl)ccc3-n3cnnn3)C2)cc(OC)c1 [compound 1419, (2R,4S)—N—((S)-1-((5-Chloro-2-(1H-tetrazol-1-yl)benzyl)amino)-1-oxopropan-2-yl)-4-(3,5-dimethoxybenzyl)pyrrolidine-2-carboxamide Trifluoroacetate salt]
[1]
  pKi: > 6.30
[2]
  pKi: > 6.30
[4]
  pIC50: > 7.30
